Among the data in the NIST ThermoML archive (doi:10.1016/j.jct.2012.04.016) are Normal boiling temperature values, retold here.

The conditions of the data set: Liquid; Ebulliometric method (Recirculating still).

SMILES strings stand for the structures. ± gives the expanded uncertainty stated by the source.

As to `Cc1ccc(C)c(C)c1` [1,2,4-trimethylbenzene], the Normal boiling temperature is 169.30 ± 0.22 °C.
To `O=CN1CCOCC1` [N-formylmorpholine] belongs 240.0 ± 0.21 °C; to `CCCCc1ccccc1` [butylbenzene], 183.2 ± 0.22 °C.
To `CCc1ccccc1` [ethylbenzene] belongs 136.20 ± 0.21 °C.
The same measure for `CC(C)c1ccccc1` [isopropylbenzene]: 152.40 ± 0.22 °C.
